Measured values: publication PMC6614837 (Nucleic Acids Research, 2019)
“Also recorded” adds a separate entry of the source.

Legend:
P RNA = experiment: Gel-based activity assay, bipartite pre-tRNA substrate, P RNA alone; assay type: biochemical, T. maritima; settings: 100 mM AmOAc, 10 mM MgCl2
Experimental: (§1) For gel-based activity assays, reactions were prepared as described in the previous section (fluorescence activity assay), incubated for 1–15 min at 37–50°C, then loaded onto a denaturing 7 M urea–20% acrylamide gel in the case of the Mh substrate or 19% acrylamide (40% acrylamide/bisacrylamide 38.5:1.5) for the bipartite pre-tRNA substrate. The activity conditions for the gel reported in Figure 3A, to monitor the cleavage of the holoenzyme and P RNA, were under 100 mM AmOAc and 10 mM MgCl2. The gels (13 × 16 × 0.15 cm) were electrophoresed at 20 V/cm for 2–3 h. UV shadowing or ethidium bromide staining was used to visualize RNA cleavage. Detection of minihelix fluorescence was achieved without staining using a UV lamp with excitation at ∼254 nm.
Figure 3. The inhibitors purpurin and hematein bind to the holoenzyme. (A) Top. […] Bottom. […] (B) The relative affinities of the inhibitors for the P RNA or the holoenzyme differ. Binding sensorgrams obtained by biolayer interferometry (BLI). P RNA or RNase P holoenzyme was immobilized on super streptavidin (SSA) biosensors through a 5′-biotinylated RNA oligonucleotide complementary to a region on the P1 stem of P RNA (see Materials and Methods). […] In contrast, gentian violet binds not only to P RNA but also to the Mh substrate (Supplementary Figure S16). (C) Molecular Dynamics (MD) simulations of RNase P protein in complex with the validated inhibitors. In each panel, semitransparent spheres represent the geometric center, over a 200 ns trajectory, of the corresponding tested compound. The 5′-leader (yellow) is shown for reference purposes only; it was not included in the simulation. Sphere color coding indicates the starting and final positions in blue and red, respectively. […] Purpurin's starting conformation corresponds to that observed in the crystal structure in complex with the P protein (PDB code: 6MAX. See Figure 5).

RNase P holoenzyme = target: T1, RNase P holoenzyme (Thermotoga maritima, UniProt Q9X1H4); experiment: Gel-based activity assay, bipartite pre-tRNA substrate, holoenzyme; assay type: biochemical, T. maritima; settings: 100 mM AmOAc, 10 mM MgCl2
T1 construct: GST (cleaved yes); made in house; host or cells: E. coli BL21(DE3)pLysS
T1 sequence (Q9X1H4 1-117): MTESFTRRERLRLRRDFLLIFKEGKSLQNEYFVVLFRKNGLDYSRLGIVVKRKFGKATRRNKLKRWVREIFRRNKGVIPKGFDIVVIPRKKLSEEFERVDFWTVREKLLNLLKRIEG
Experimental: as §1
Figure 3. The inhibitors purpurin and hematein bind to the holoenzyme. (A) Top. […] Bottom. […] (B) The relative affinities of the inhibitors for the P RNA or the holoenzyme differ. Binding sensorgrams obtained by biolayer interferometry (BLI). P RNA or RNase P holoenzyme was immobilized on super streptavidin (SSA) biosensors through a 5′-biotinylated RNA oligonucleotide complementary to a region on the P1 stem of P RNA (see Materials and Methods). […] In contrast, gentian violet binds not only to P RNA but also to the Mh substrate (Supplementary Figure S16). […]

P protein = target: T2, P protein (Thermotoga maritima, UniProt Q9X1H4); experiment: Binding hindrance of the 5′ RNA leader to the P protein (BLI); design: species or system T. maritima; settings: compound 100 μM, 5′ RNA leader 5 μM
T2 construct: GST (cleaved yes); made in house; host or cells: E. coli BL21(DE3)pLysS
T2 sequence (Q9X1H4 1-117): T1 sequence (Q9X1H4 1-117)
Experimental: A 5′ RNA leader sequence with 10-bases 5′-GGAAAAAGAU-3′ was purchased from IDT and used at a concentration of 5 μM. This sequence is the same used to obtain the crystal structure of the RNase P holoenzyme ([19]). The His-tagged P protein was immobilized on Ni-NTA biosensors at 0.05 mg/ml (3.4 μM). […] The steps performed on the assay and their periods were: P protein immobilization (400 s), wash (100 s), baseline […] (1000 rpm), compound association (800 s), compound dissociation (200 s) (500 rpm), baseline (100 s), 5′ leader association (200 s), 5′ leader dissociation (200 s) (1000 rpm). The assay was performed at 30°C. The compounds were used at 100 μM throughout. All assay steps were performed in 20 mM HEPES pH 7.4, 100 mM ammonium acetate, 10 mM MgCl2, 5% DMSO.
5 ′ RNA leader. (A) Experimental design of 5′ RNA leader binding hindrance experiments. Figures B-F are based on the analysis region depicted in panel A, where association and dissociation of the 5′ RNA leader to the P protein (TmP) is measured over time. P protein at 3.5 µM was immobilized on Ni-NTA biosensors for 300 s, while compounds were assayed at 100 µM and the […]
binding, in contrast with hematein (E) and purpurin (F).
(1 picture or pasted object on this page, not shown here)

[1] = target: T3, RNase P holoenzyme from T. maritima (Thermotoga maritima, UniProt Q9X1H4); experiment: End-point urea-PAGE RNase P activity assay with canonical pre-tRNA substrate; assay type: biochemical; settings: 10% DMSO
T3 construct: made in house
T3 sequence (Q9X1H4 1-117): T1 sequence (Q9X1H4 1-117)
Experimental: Supplementary Figure 11 . End-point urea-PAGE RNase P activity assays using a canonical pre-tRNA substrate are in agreement with the fluorescence inhibition experiments. RNase P holoenzyme from T. maritima is inhibited by the four validated hits, as observed in an 18% urea- PAGE end-point assay. RNase P holoenzyme was incubated in the presence of 10% DMSO (+) or different concentrations of compound for 30 min at 37°C. See also Supplementary Figure […]
Supplementary Figure 12. End-point urea-PAGE RNase P activity assays using a canonical pre-tRNA substrate are in agreement with the fluorescence inhibition experiments using the minihelix substrate. Compound-dependent disappearance of the pre-tRNA substrate, with a […]
biological substrate for the inhibitors (juglone and purpurin). The assays were performed under the following conditions: 66 nM RNase P holoenzyme, in a total volume of 20 µL in activity buffer (33 mM Tris, 66 mM HEPES pH 7.4, 400 mM ammonium acetate, 100 mM MgCl2) were incubated in the presence of 10% DMSO (+) or different concentrations of compound for 30 min at 37° C. Then, pre-tRNA was added to a final concentration of 1.6 µM and the reaction was incubated at 55° C for 25 min before gel loading. […]

| Structure (SMILES) | Inhibition of the P RNA reaction (P RNA) | Inhibition of the holoenzyme reaction (RNase P holoenzyme) | Hindrance of 5′ RNA leader binding to the P protein (P protein) | Hindrance of 5′ RNA leader binding to the P protein (P protein; listed as hematein) | Inhibition of pre-tRNA cleavage (urea-PAGE end-point) [1] | Hindrance of 5′ RNA leader binding to the P protein (P protein; listed as purpurin) |
| --- | --- | --- | --- | --- | --- | --- |
| O=C1C=C2CC3(O)COc4c(ccc(O)c4O)C3=C2C=C1O (stereo not drawn) [Hematein, 3,4,6a,10-tetrahydroxy-6a,7-dihydroindeno[2,1-c]chromen-9(6H)-one] | not the P RNA alone | inhibit the reaction catalyzed by the RNase P holoenzyme | hinder the binding of the P protein | displayed leader-binding hindrance | – | – |
| O=C1C=CC(=O)c2c(O)cccc21 [Juglone, 5-hydroxy-1,4-naphthoquinone] | less clear behavior | – | do not impede the leader binding | – | confirms the inhibition | – |
| O=C1c2ccccc2C(=O)c2c(O)c(O)cc(O)c21 [Purpurin, 1,2,4-trihydroxyanthraquinone] | not the P RNA alone | inhibit the reaction catalyzed by the RNase P holoenzyme | hinders the binding of the P protein to the 5′ RNA leader | – | confirms the inhibition | hinder the binding of the P protein; also recorded: interferes with the binding of the leader to the P protein |
